The subject of the assay is CD4+CD28null T cells from lung transplant recipients with BOS. The assay is described as follows: Inhibition of proliferation by cyclosporine A (BrdU incorporation, anti-CD3 stimulation). The format is cell-based, human. The settings on record: preliminary findings, n=2 subjects. The method, then: Inhibition of Proliferation by Cyclosporine A (CsA) Segregated CD28+ and CD28null CD4 T-cell subpopulations were individually cultured in duplicate wells coated with anti-CD3 monoclonal antibody (OKT3) (see above). Autologous nurse cells, positively selected during the initial CD4 T-cell isolations (see above) were added in a 3:1 nurse cell:CD4 T-cell ratio. In order to eliminate potential confounding by CD4dim monocytes, all CD4+ cells were depleted from the nurse cells (<<1% residual), prior to their use in cultures, by positive selection with anti-CD4-coated magnetic beads (Invitrogen, Carlsbad, Calif.). Cyclosporine (Novartis, East Hanover, N.J.) to a final concentration of 100 ng/ml was added to half the wells. Proliferation within the respective CD4 subpopulations were measured by bromodeoxyuridine (BrdU) incorporation, using reagents and methods supplied in a kit (BD Pharmingen). In brief, BrdU in a final concentration of 10 μM was added to cultures two days prior to their harvests. After 5±1 days of culture, cells were harvested from wells and stained with anti-CD4, fixed and permeabilized, and then incubated with anti-BrdU and 7-amino-actinomycin (7-AAD). The proportion of proliferating CD4+ T cells (BrdU+) among the viable cells (≧diploid DNA content) was determined by flow cytometry.

Each structure is given as a SMILES string.

Take `C=CC[C@@H]1/C=C(\C)C[C@H](C)C[C@H](OC)[C@H]2O[C@@](O)(C(=O)C(=O)N3CCCC[C@H]3C(=O)O[C@H](/C(C)=C/[C@@H]3CC[C@@H](O)[C@H](OC)C3)[C@H](C)[C@@H](O)CC1=O)[C@H](C)C[C@@H]2OC` [tacrolimus]: the “resistance of the cells to the drug” value is recorded as “relatively resistant”.
